Among the data in patent publication US8552002B2 (Novartis AG, priority 2004, dated 2013) are melting point and inhibition values, retold here.

One data set addresses T1, FGFR3 (K650E) (Homo sapiens, UniProt P22607, K650E).
T1 construct: amino acids 411-806 of the cytoplasmic domain of human FGFR-3, N-terminally fused to GST; made in house; host or cells: Sf9 insect cells (baculovirus)
Briefly: Recombinant GST-FGFR-3-K650E tyrosine kinase assay (33P into poly(Glu,Tyr)). Type of data set: biochemical. Particulars: read-out: FGFR3 (K650E) inhibition at 10 μM.

The next data set addresses T2, KDR (Homo sapiens, UniProt P35968).
T2 construct: expressed in transfected cells; host or cells: CHO cells
Briefly: Inhibitory activity against KDR (VEGF-R2), in vitro data of Examples 170 and 207. Type of data set: biochemical. Particulars: read-out: KDR inhibition at 10 μM. The method, boiled down: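 KDR tyrosine phosphorylation detected by luminescence after overnight 4° C capture of 20 μg lysate protein with PY20:AP antibody. Lysates came from cells given compound for 2 h at 37° C, then final 20 ng/ml VEGF for 5 min; compound-free medium as control.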

The next data set addresses T3, Tek (Homo sapiens, UniProt Q02763).
T3 construct: amino acids 773-1124 of the cytoplasmic kinase domain of human Tek, N-terminally fused to GST; made in house; host or cells: Sf9 insect cells (baculovirus)
Briefly: Recombinant GST-Tek (Tie-2) tyrosine kinase assay (33P into poly(Glu,Tyr)). The format is biochemical. The following applies: Examples 1 to 169. The method, boiled down: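 GST-fused human Tek kinase domain (aa 773-1124), baculovirus-expressed, 150 ng per reaction; 10 μg/mL poly(Glu,Tyr) 4:1, 4.0 μM [γ-33P]ATP, 3 mM MnCl2/3 mM MgCl2, pH 7.5, 30 min at ambient temperature. 33P uptake read on PVDF filters; IC50 by linear regression from four concentrations in duplicate.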

One may read the melting point as the temperature, or range, at which the solid turns liquid. The term inhibition denotes the share of the control response that was lost under treatment.

Where two headings read alike, the source gives them in different places.

T2 sequence (P35968 20-1356): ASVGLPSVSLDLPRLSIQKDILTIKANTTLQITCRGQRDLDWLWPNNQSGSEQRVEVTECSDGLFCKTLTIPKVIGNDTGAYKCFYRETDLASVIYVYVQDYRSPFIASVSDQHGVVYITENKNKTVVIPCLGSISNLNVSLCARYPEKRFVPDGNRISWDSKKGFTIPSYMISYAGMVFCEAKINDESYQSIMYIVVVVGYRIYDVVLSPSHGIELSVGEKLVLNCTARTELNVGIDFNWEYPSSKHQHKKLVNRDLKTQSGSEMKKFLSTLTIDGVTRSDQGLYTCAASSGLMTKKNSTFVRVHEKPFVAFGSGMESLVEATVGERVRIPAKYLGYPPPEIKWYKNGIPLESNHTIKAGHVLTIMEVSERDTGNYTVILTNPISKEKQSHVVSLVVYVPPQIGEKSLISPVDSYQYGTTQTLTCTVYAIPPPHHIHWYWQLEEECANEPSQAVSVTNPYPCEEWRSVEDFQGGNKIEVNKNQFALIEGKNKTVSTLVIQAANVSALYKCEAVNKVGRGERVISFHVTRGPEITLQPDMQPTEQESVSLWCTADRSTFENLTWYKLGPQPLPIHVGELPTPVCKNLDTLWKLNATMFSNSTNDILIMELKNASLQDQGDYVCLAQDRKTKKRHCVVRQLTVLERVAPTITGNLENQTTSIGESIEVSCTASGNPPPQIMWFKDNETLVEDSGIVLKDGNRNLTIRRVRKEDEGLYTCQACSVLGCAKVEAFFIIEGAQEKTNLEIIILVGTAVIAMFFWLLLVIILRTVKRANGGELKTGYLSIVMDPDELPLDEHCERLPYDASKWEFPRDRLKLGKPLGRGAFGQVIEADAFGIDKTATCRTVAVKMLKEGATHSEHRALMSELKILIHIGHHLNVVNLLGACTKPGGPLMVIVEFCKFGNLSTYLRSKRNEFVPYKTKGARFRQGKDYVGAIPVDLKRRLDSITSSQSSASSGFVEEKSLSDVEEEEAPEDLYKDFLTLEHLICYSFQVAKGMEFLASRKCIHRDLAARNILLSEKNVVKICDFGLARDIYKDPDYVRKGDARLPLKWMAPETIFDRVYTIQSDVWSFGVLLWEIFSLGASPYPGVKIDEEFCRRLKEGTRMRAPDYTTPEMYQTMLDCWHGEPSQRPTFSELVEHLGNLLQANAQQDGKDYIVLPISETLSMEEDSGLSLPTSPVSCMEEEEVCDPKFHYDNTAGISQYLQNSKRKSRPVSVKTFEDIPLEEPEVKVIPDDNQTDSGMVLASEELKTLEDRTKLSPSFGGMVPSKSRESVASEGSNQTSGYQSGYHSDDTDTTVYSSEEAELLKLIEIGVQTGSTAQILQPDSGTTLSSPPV
T1 sequence (P22607 411-806 K650E): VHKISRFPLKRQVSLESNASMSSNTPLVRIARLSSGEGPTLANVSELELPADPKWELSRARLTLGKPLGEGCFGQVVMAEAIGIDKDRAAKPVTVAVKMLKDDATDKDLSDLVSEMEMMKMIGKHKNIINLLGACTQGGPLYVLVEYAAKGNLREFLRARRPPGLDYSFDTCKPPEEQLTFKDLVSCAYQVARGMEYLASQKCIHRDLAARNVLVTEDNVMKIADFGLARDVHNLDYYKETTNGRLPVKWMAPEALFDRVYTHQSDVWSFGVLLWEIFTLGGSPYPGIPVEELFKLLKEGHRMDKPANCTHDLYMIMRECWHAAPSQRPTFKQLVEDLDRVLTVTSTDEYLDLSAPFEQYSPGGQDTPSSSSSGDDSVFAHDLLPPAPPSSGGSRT
T3 sequence (Q02763 773-1124): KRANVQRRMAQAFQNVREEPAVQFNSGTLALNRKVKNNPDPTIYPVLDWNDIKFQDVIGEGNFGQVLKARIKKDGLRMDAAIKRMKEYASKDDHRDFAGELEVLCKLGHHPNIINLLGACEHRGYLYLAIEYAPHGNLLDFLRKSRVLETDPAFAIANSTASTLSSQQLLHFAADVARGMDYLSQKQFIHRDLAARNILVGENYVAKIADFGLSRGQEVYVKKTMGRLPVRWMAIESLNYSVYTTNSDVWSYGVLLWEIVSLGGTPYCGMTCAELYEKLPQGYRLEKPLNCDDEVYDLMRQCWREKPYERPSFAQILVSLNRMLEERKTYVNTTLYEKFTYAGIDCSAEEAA

For `CN1CCC(COc2ccc(Nc3cc(NC(=O)Nc4c(Cl)cccc4Cl)ncn3)cc2)CC1` [Example 71, 1-(2,6-Dichloro-phenyl)-3-{6-[4-(1-methyl-piperidin-4-ylmethoxy)-phenylamino]-pyrimidin-4-yl}-urea], the melting point was 183 to 185 °C. Further, at FGFR3 (K650E) (10 μM, Examples 1 to 169), the inhibition at 10 µM is 27 to 100%. In addition, the inhibition at 10 µM on KDR (10 μM, Examples 1 to 169) lay within 67 to 100%. The inhibition at 10 µM at Tek lay in the range of 12 to 100%.

In turn, `CN1CCN(c2ccc(Nc3cc(NC(=O)Nc4cc(Cl)ccc4Cl)ncn3)cc2)CC1` [Example 72, 1-(2,5-Dichloro-Phenyl)-3-{6-[4-(4-methyl-piperazin-1-yl)-phenylamino]-pyrimidin-4-yl}-urea] registered a melting point of 223 to 225 °C. Further, the inhibition at 10 µM on FGFR3 (K650E) (10 μM, Examples 1 to 169) lay in the range of 27 to 100%. The inhibition at 10 µM at KDR (10 μM, Examples 1 to 169) is 67 to 100%. In addition, the inhibition at 10 µM on Tek was 12 to 100%.

`CN1CCN(c2ccc(Nc3cc(NC(=O)Nc4c(Cl)cc(Cl)cc4Cl)ncn3)cc2)CC1` [Example 73, 1-{6-[4-(4-Methyl-piperazin-1-yl)-phenylamino]-pyrimidin-4-yl}-3-(2,4,6-trichloro-phenyl)-urea] had a melting point of 209 to 211 °C. The inhibition at 10 µM on FGFR3 (K650E) (10 μM, Examples 1 to 169) is 27 to 100%. On KDR (10 μM, Examples 1 to 169), the inhibition at 10 µM lay in the range of 67 to 100%. For the same compound, the inhibition at 10 µM on Tek lay within 12 to 100%.

`CN1CCN(c2ccc(Nc3cc(NC(=O)Nc4cc(Cl)c(Cl)cc4Cl)ncn3)cc2)CC1` [Example 74, 1-{6-[4-(4-Methyl-piperazin-1-yl)-phenylamino]-pyrimidin-4-yl}-3-(2,4,5-trichloro-phenyl)-urea] registered a melting point of 252 to 254 °C. Moreover, the inhibition at 10 µM on FGFR3 (K650E) (10 μM, Examples 1 to 169) is 27 to 100%. The inhibition at 10 µM at KDR (10 μM, Examples 1 to 169) is 67 to 100%. Besides, on Tek, the inhibition at 10 µM was 12 to 100%.

`CN1CCN(c2ccc(Nc3cc(NC(=O)Nc4ccc(Cl)c(Cl)c4)ncn3)cc2)CC1` [Example 75, 1-(3,4-Dichloro-phenyl)-3-{6-[4-(4-methyl-piperazin-1-yl)-phenylamino]-pyrimidin-4-yl}-urea] had a melting point of 260 to 262 °C. The inhibition at 10 µM at FGFR3 (K650E) (10 μM, Examples 1 to 169) was 27 to 100%. The inhibition at 10 µM on KDR (10 μM, Examples 1 to 169) lay within 67 to 100%. Also, the inhibition at 10 µM at Tek is 12 to 100%.

Compound `CN1CCN(c2ccc(N(C(=O)Nc3cccc(Cl)c3Cl)c3cc(N)ncn3)cc2)CC1` [Example 76, 1-(6-Amino-pyrimidin-4-yl}-3-(2,3-dichloro-phenyl)-1-[4-(4-methyl-piperazin-1-yl)-phenyl]-urea] came in with a melting point of 280 to 282 °C. Further, the inhibition at 10 µM on FGFR3 (K650E) (10 μM, Examples 1 to 169) was 27 to 100%. Moreover, on KDR (10 μM, Examples 1 to 169), the inhibition at 10 µM fell in the range of 67 to 100%. In addition, the inhibition at 10 µM at Tek was 12 to 100%.

For the compound `CN1CCN(c2ccc(Nc3cc(NC(=O)Nc4cccc(Cl)c4Cl)ncn3)cc2)CC1` [Example 77, 1-(2,3-Dichloro-Phenyl)-3-{6-[4-(4-methyl-piperazin-1-yl)-phenylamino]-pyrimidin-4-yl}-urea], the melting point fell in the range of 279 to 281 °C. Also, at FGFR3 (K650E) (10 μM, Examples 1 to 169), the inhibition at 10 µM lay within 27 to 100%. Besides, the inhibition at 10 µM at KDR (10 μM, Examples 1 to 169) was in the range of 67 to 100%. Also, the inhibition at 10 µM at Tek was in the range of 12 to 100%.

`Cc1cccc(Cl)c1NC(=O)Nc1cc(Nc2cccc(OCC3CCN(C)CC3)c2)ncn1` [Example 79, 1-(2-Chloro-6-methyl-phenyl)-3-{6-[3-(1-methyl-piperidin-4-ylmethoxy)-phenylamino]-pyrimidin-4-yl}-urea] showed a melting point of 200 to 204 °C. Further, at FGFR3 (K650E) (10 μM, Examples 1 to 169), the inhibition at 10 µM lay in the range of 27 to 100%. For the same compound, the inhibition at 10 µM on KDR (10 μM, Examples 1 to 169) fell in the range of 67 to 100%. The inhibition at 10 µM at Tek fell in the range of 12 to 100%.

In turn, `CN1CCC(COc2cccc(Nc3cc(NC(=O)Nc4c(Cl)cccc4Cl)ncn3)c2)CC1` [Example 80, 1-(2,6-Dichloro-Phenyl)-3-{6-[3-(1-methyl-piperidin-4-ylmethoxy)-phenylamino]-pyrimidin-4-yl}-urea] had a melting point of 198 to 200 °C. Moreover, at FGFR3 (K650E) (10 μM, Examples 1 to 169), the inhibition at 10 µM fell in the range of 27 to 100%. The inhibition at 10 µM at KDR (10 μM, Examples 1 to 169) lay in the range of 67 to 100%. Further, the inhibition at 10 µM on Tek was in the range of 12 to 100%.

Compound `CN1CCC(COc2cccc(Nc3cc(NC(=O)Nc4c(Cl)cc(Cl)cc4Cl)ncn3)c2)CC1` [Example 81, 1-{6-[3-(1-Methyl-piperidin-4-ylmethoxy)-phenylamino]-pyrimidin-4-yl}-3-(2,4,6-trichloro-phenyl)-urea] came in with a melting point of 222 to 225 °C. Also, the inhibition at 10 µM at FGFR3 (K650E) (10 μM, Examples 1 to 169) fell in the range of 27 to 100%. Moreover, the inhibition at 10 µM on KDR (10 μM, Examples 1 to 169) fell in the range of 67 to 100%. For the same compound, the inhibition at 10 µM at Tek lay in the range of 12 to 100%.

`Cc1cccc(Cl)c1NC(=O)Nc1cc(Nc2ccc(CN3CCN(C)CC3)cc2)ncn1` [Example 82, 1-(2-Chloro-6-methyl-phenyl)-3-{6-[4-(4-methyl-piperazin-1-ylmethyl)-phenylamino]-pyrimidin-4-yl}-urea] showed a melting point of 199 to 201 °C. The inhibition at 10 µM at FGFR3 (K650E) (10 μM, Examples 1 to 169) was 27 to 100%. Besides, the inhibition at 10 µM at KDR (10 μM, Examples 1 to 169) was in the range of 67 to 100%. On Tek, the inhibition at 10 µM fell in the range of 12 to 100%.

Turning to `CN1CCN(Cc2ccc(Nc3cc(NC(=O)Nc4c(Cl)cccc4Cl)ncn3)cc2)CC1` [Example 83, 1-(2,6-Dichloro-Phenyl)-3-{6-[4-(4-methyl-piperazin-1-ylmethyl)-phenylamino]-pyrimidin-4-yl}-urea], the melting point lay within 199 to 201 °C. The inhibition at 10 µM at FGFR3 (K650E) (10 μM, Examples 1 to 169) was 27 to 100%. For the same compound, on KDR (10 μM, Examples 1 to 169), the inhibition at 10 µM was 67 to 100%. In addition, the inhibition at 10 µM on Tek lay in the range of 12 to 100%.

For `CN1CCN(Cc2ccc(Nc3cc(NC(=O)Nc4c(Cl)cc(Cl)cc4Cl)ncn3)cc2)CC1` [Example 84, 1-{6-[4-(4-Methyl-piperazin-1-ylmethyl)-phenylamino]-pyrimidin-4-yl}-3-(2,4,6-trichloro-phenyl)-urea], the melting point fell in the range of 194 to 196 °C. The inhibition at 10 µM at FGFR3 (K650E) (10 μM, Examples 1 to 169) was 27 to 100%. Besides, the inhibition at 10 µM on KDR (10 μM, Examples 1 to 169) is 67 to 100%. Also, the inhibition at 10 µM at Tek is 12 to 100%.

Take `CN1CCN(C(=O)c2ccc(Nc3cc(NC(=O)Nc4c(Cl)cc(Cl)cc4Cl)ncn3)cc2)CC1` [Example 85, 1-{6-[4-(4-Methyl-piperazin-1-carbonyl)-phenylamino]-pyrimidin-4-yl}-3-(2,4,6-trichloro-phenyl)-urea]: the melting point fell in the range of 165 to 175 °C. Moreover, the inhibition at 10 µM at FGFR3 (K650E) (10 μM, Examples 1 to 169) lay within 27 to 100%. In addition, the inhibition at 10 µM on KDR (10 μM, Examples 1 to 169) lay within 67 to 100%. In addition, the inhibition at 10 µM at Tek lay in the range of 12 to 100%.

For the compound `CN1CCN(c2cccc(Nc3cc(NC(=O)Nc4c(Cl)cc(Cl)cc4Cl)ncn3)c2)CC1` [Example 86, 1-{6-[3-(4-Methyl-piperazin-1-yl)-phenylamino]-pyrimidin-4-yl}-3-(2,4,6-trichloro-phenyl)-urea], the melting point was 138 to 142 °C. In addition, on FGFR3 (K650E) (10 μM, Examples 1 to 169), the inhibition at 10 µM fell in the range of 27 to 100%. In addition, the inhibition at 10 µM at KDR (10 μM, Examples 1 to 169) was 67 to 100%. The inhibition at 10 µM at Tek was in the range of 12 to 100%.

Regarding `CC(C)(C)[Si](C)(C)O[C@H]1CC[C@H](Nc2cc(NC(=O)Nc3c(Cl)cc(Cl)cc3Cl)ncn2)CC1` [Example 87, 1-{6-[(trans)-4-(tert-Butyl-dimethyl-silanyloxy)-cyclohexylamino]-pyrimidin-4-yl}-3-(2,4,6-trichloro-phenyl)-urea], the melting point fell in the range of 198 to 199 °C. For the same compound, the inhibition at 10 µM at FGFR3 (K650E) was 27 to 100%. Further, at KDR, the inhibition at 10 µM is 67 to 100%. Moreover, the inhibition at 10 µM on Tek was 12 to 100%.

`O=C(Nc1cc(N[C@H]2CC[C@H](O)CC2)ncn1)Nc1c(Cl)cc(Cl)cc1Cl` [Example 88, 1-[6-((trans)-4-Hydroxy-cyclohexylamino)-pyrimidin-4-yl]-3-(2,4,6-trichloro-phenyl)-urea] had a melting point of 171 to 173 °C. Also, the inhibition at 10 µM on FGFR3 (K650E) (10 μM, Examples 1 to 169) fell in the range of 27 to 100%. Besides, the inhibition at 10 µM at KDR (10 μM, Examples 1 to 169) was in the range of 67 to 100%. Also, at Tek, the inhibition at 10 µM lay within 12 to 100%.

Consider `Cc1cccc(Cl)c1NC(=O)Nc1cc(N[C@H]2CC[C@H](O[Si](C)(C)C(C)(C)C)CC2)ncn1` [Example 89, 1-{6-[(trans)-4-(tert-Butyl-dimethyl-silanyloxy)-cyclohexylamino]-pyrimidin-4-yl}-3-(2-chloro-6-methyl-phenyl)-urea], for which the melting point was in the range of 218 to 220 °C. Further, on FGFR3 (K650E), the inhibition at 10 µM was in the range of 27 to 100%. Moreover, the inhibition at 10 µM at KDR lay in the range of 67 to 100%. For the same compound, the inhibition at 10 µM on Tek fell in the range of 12 to 100%.

In turn, `Cc1cccc(Cl)c1NC(=O)Nc1cc(N[C@H]2CC[C@H](O)CC2)ncn1` [Example 90, 1-(2-Chloro-6-methyl-phenyl)-3-[6-((trans)-4-hydroxy-cyclohexylamino)-pyrimidin-4-yl]-urea] registered a melting point of 149 to 152 °C. Further, the inhibition at 10 µM on FGFR3 (K650E) (10 μM, Examples 1 to 169) lay within 27 to 100%. Further, on KDR (10 μM, Examples 1 to 169), the inhibition at 10 µM fell in the range of 67 to 100%. The inhibition at 10 µM at Tek lay in the range of 12 to 100%.

Take `CC(C)(C)[Si](C)(C)O[C@H]1CC[C@H](Nc2cc(NC(=O)Nc3c(Cl)cccc3Cl)ncn2)CC1` [Example 91, 1-{6-[(trans)-4-(tert-Butyl-dimethyl-silanyloxy)-cyclohexylamino]-pyrimidin-4-yl}3-(2,6-dichloro-phenyl)-urea]: the melting point is 211 to 212 °C. Moreover, at FGFR3 (K650E), the inhibition at 10 µM was in the range of 27 to 100%. Moreover, on KDR, the inhibition at 10 µM lay within 67 to 100%. Moreover, at Tek, the inhibition at 10 µM was 12 to 100%.
